{"source": "patent US6391339B1", "about": "“Use of oligosaccharide for preventing blood clotting in extracorporeal blood circuits” (Akzo Nobel N.V., priority 1997, dated 2002)", "tested_on": "patients undergoing chronic intermittent haemodialysis", "conditions": "12 haemodialysis patients; half an hour before the end of the last dialysis", "experimental": "The study consisted of 2 phases (block A and block B). In block A, 10 mg of Org 31540/SR 90107 A was administered. Thereafter, in block B, 8, 6, and 4 mg of Org 31540/SR 90107 A were used.\nMedication was given as an intravenous bolus predialysis for 1 dialysis each week. Efficacy was assessed by determining patency of the dialyzer, buffer and bubble chamber, every hour during dialysis by visual examination and by blood sampling of specific coagualtion, heamatologic and biochemical parameters. Anti-Xa plasma samples, to determine pharmacokinetics, were taken every hour during dialysis and 1 hour after dialysis and daily for 3 days post-dialysis. Safety was assessed by evaluating major and minor bleeding complications each dialysis.", "data": [{"smiles": "CO[C@H]1O[C@H](COS(=O)(=O)O)[C@@H](O[C@@H]2O[C@@H](C(=O)O)[C@@H](O[C@H]3O[C@H](COS(=O)(=O)O)[C@@H](O[C@@H]4O[C@H](C(=O)O)[C@@H](O[C@H]5O[C@H](COS(=O)(=O)O)[C@@H](O)[C@H](O)[C@H]5NS(=O)(=O)O)[C@H](O)[C@H]4O)[C@H](OS(=O)(=O)O)[C@H]3NS(=O)(=O)O)[C@H](O)[C@H]2OS(=O)(=O)O)[C@H](O)[C@H]1NS(=O)(=O)O", "note": "[Org 31540/SR 90107 A, methyl O—(2-deoxy-2-sulphoamino-6-O-suplho-α-D-glucopyranosyl)-(1→4)—O—(β-D-glucopyranosyluronic acid)-(1→4)—O—(2-deoxy-2-sulphoamino-3,6-di-O-sulpho-α-D-glucopyranosyl)-(1→4)—O—(2-O-sulpho-α-L-idopyranosyluronic acid)-(1→4)-2-deoxy-2-sulphoamino-6-O-sulpho-α-D-glucopyranoside]", "values": [{"measurement": "clot in the buffer chamber making dialysis impossible", "result": "Only in one patient"}]}]}
